Measurements taken from PubChem BioAssay (NCI).
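How tested: cells in 96-well plates exposed to compound for 48 hours at five concentrations. GI50 marks 50% less growth. The concentration for full growth arrest is given as TGI.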

Columns and labels:
Test in all cases: inhibition of tumour cell growth, NCI panel, 48 h
NCI-H460 lung = system: NCI-H460 lung
SK-MEL-2 melanoma = system: SK-MEL-2 melanoma
CCRF-CEM leukemia = system: CCRF-CEM leukemia
OVCAR-3 ovarian = system: OVCAR-3 ovarian
PC-3 prostate = system: PC-3 prostate
DU-145 prostate = system: DU-145 prostate
OVCAR-8 ovarian = system: OVCAR-8 ovarian
786-0 renal = system: 786-0 renal
MCF7 breast = system: MCF7 breast
COLO 205 colon = system: COLO 205 colon
SW-620 colon = system: SW-620 colon
OVCAR-5 ovarian = system: OVCAR-5 ovarian
NCI-H23 lung = system: NCI-H23 lung
TK-10 renal = system: TK-10 renal
MDA-MB-231 breast = system: MDA-MB-231 breast
SF-295 CNS = system: SF-295 CNS
HT29 colon = system: HT29 colon
IGROV1 ovarian = system: IGROV1 ovarian
KM12 colon = system: KM12 colon
SK-MEL-28 melanoma = system: SK-MEL-28 melanoma
EKVX NSCLC = system: EKVX NSCLC
SK-OV-3 ovarian = system: SK-OV-3 ovarian
SF-268 CNS = system: SF-268 CNS
U251 CNS = system: U251 CNS
OVCAR-4 ovarian = system: OVCAR-4 ovarian
HCT-15 colon = system: HCT-15 colon
SF-539 CNS = system: SF-539 CNS
SNB-19 CNS = system: SNB-19 CNS
SK-MEL-5 melanoma = system: SK-MEL-5 melanoma
HOP-62 NSCLC = system: HOP-62 NSCLC
NCI-H226 lung = system: NCI-H226 lung
MDA-MB-435 = system: MDA-MB-435
A549 NSCLC = system: A549 NSCLC
HCC-2998 colon = system: HCC-2998 colon
RPMI-8226 leukemia = system: RPMI-8226 leukemia
HS 578T breast = system: HS 578T breast
SNB-75 CNS = system: SNB-75 CNS
NCI/ADR-RES ovarian = system: NCI/ADR-RES ovarian
LOX IMVI melanoma = system: LOX IMVI melanoma
CAKI-1 renal = system: CAKI-1 renal
SN12C renal = system: SN12C renal
UACC-62 melanoma = system: UACC-62 melanoma
UO-31 renal = system: UO-31 renal
NCI-H522 lung = system: NCI-H522 lung
BT-549 breast = system: BT-549 breast
UACC-257 melanoma = system: UACC-257 melanoma
T-47D breast = system: T-47D breast
HOP-92 NSCLC = system: HOP-92 NSCLC

## CC(C)(C#N)c1cc(Cn2cncn2)cc(C(C)(C)C#N)c1
NCI-H460 lung
  GI50: 3.99 mM
  TGI: > 10 mM
SK-MEL-2 melanoma
  TGI: 3.59 mM
CCRF-CEM leukemia
  GI50: 0.393 mM
  TGI: 2.48 mM
OVCAR-3 ovarian
  GI50: > 10 mM
  TGI: > 10 mM
PC-3 prostate
  GI50: 0.792 mM
  TGI: > 10 mM
DU-145 prostate
  GI50: > 10 mM
  TGI: > 10 mM
OVCAR-8 ovarian
  GI50: > 10 mM
  TGI: > 10 mM
786-0 renal
  GI50: 0.892 mM
  TGI: > 10 mM
MCF7 breast
  GI50: 2.24 mM
  TGI: > 10 mM
COLO 205 colon
  GI50: 2.07 mM
  TGI: > 10 mM
SW-620 colon
  GI50: > 10 mM
  TGI: > 10 mM
OVCAR-5 ovarian
  GI50: > 10 mM
  TGI: > 10 mM
NCI-H23 lung
  GI50: > 10 mM
  TGI: > 10 mM
TK-10 renal
  GI50: 0.564 mM
  TGI: > 10 mM
MDA-MB-231 breast
  GI50: 0.539 mM
  TGI: > 10 mM
SF-295 CNS
  GI50: 0.299 mM
  TGI: > 10 mM
HT29 colon
  GI50: 3.05 mM
  TGI: > 10 mM
IGROV1 ovarian
  GI50: 1.76 mM
  TGI: > 10 mM
KM12 colon
  GI50: > 10 mM
  TGI: > 10 mM
SK-MEL-28 melanoma
  GI50: > 10 mM
  TGI: > 10 mM
EKVX NSCLC
  GI50: 0.4 mM
  TGI: > 10 mM
SK-OV-3 ovarian
  GI50: > 10 mM
  TGI: > 10 mM
SF-268 CNS
  GI50: > 10 mM
  TGI: > 10 mM
U251 CNS
  GI50: > 10 mM
  TGI: > 10 mM
OVCAR-4 ovarian
  GI50: > 10 mM
  TGI: > 10 mM
HCT-15 colon
  GI50: > 10 mM
  TGI: > 10 mM
SF-539 CNS
  GI50: 2.45 mM
  TGI: > 10 mM
SNB-19 CNS
  GI50: > 10 mM
  TGI: > 10 mM
SK-MEL-5 melanoma
  GI50: 0.106 mM
  TGI: > 10 mM
HOP-62 NSCLC
  GI50: 0.921 mM
  TGI: > 10 mM
NCI-H226 lung
  GI50: 0.718 mM
  TGI: > 10 mM
MDA-MB-435
  GI50: > 10 mM
  TGI: > 10 mM
A549 NSCLC
  GI50: 0.933 mM
  TGI: > 10 mM
HCC-2998 colon
  GI50: > 10 mM
  TGI: > 10 mM
RPMI-8226 leukemia
  GI50: 0.183 mM
  TGI: 0.698 mM
HS 578T breast
  GI50: 0.289 mM
  TGI: > 10 mM
SNB-75 CNS
  GI50: > 10 mM
  TGI: > 10 mM
NCI/ADR-RES ovarian
  GI50: 0.477 mM
  TGI: > 10 mM
LOX IMVI melanoma
  GI50: > 10 mM
  TGI: > 10 mM
CAKI-1 renal
  GI50: > 10 mM
  TGI: > 10 mM
SN12C renal
  GI50: > 10 mM
  TGI: > 10 mM
UACC-62 melanoma
  GI50: 0.768 mM
  TGI: > 10 mM
UO-31 renal
  GI50: 0.72 mM
  TGI: > 10 mM
NCI-H522 lung
  GI50: 2.63 mM
  TGI: > 10 mM
BT-549 breast
  GI50: 0.472 mM
  TGI: > 10 mM
UACC-257 melanoma
  GI50: > 10 mM
  TGI: > 10 mM
T-47D breast
  GI50: 6.76 mM
  TGI: > 10 mM
HOP-92 NSCLC
  GI50: 0.297 mM
  TGI: 2.98 mM
